Test results taken from patent US8435978B2, “Substituted sulfonamide compounds” (Gruenenthal GmbH, priority 2006, dated 2013).
Where a name gives a salt, the structure may show the parent alone.

Key:
[1] = target: T1, B1R receptor of the rat (Rattus norvegicus, UniProt P97583); assay: Functional study on the bradykinin receptor 1 (B1R), FLIPR Ca2+ assay, rB1R cells; assay type: cell-based; details: CHO-K1, test substance 10 μM, agonist Des-Arg9-bradykinin 100 nM, % inhibition compared with the maximum achievable inhibition, read-out: B1R Antagonism, rat [10 μM] % Inhibition
T1 construct: host or cells: CHO K1 cells (Chinese hamster ovary), stably transfected
T1 sequence (P97583 1-337): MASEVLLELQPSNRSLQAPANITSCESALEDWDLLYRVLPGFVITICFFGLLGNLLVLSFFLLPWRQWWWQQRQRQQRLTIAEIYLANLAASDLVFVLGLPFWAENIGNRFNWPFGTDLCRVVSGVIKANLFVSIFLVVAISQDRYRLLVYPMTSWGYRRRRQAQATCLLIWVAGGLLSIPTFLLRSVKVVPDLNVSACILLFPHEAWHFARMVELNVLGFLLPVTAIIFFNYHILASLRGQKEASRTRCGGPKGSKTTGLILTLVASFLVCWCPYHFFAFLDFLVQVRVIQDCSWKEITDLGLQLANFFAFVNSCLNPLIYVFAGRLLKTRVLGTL
Procedure, shortened: (§1)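 FLIPR Ca2+ assay in recombinant CHO K1 cells (human or rat B1R), Fluo-4 dye; 10 μM compound, 10 min, then EC-level agonist per species (0.5 nM Lys-Des-Arg9-BK human / 100 nM Des-Arg9-BK rat). Output: % inhibition vs maximum.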

[2] = target: T2, human B1R receptor (Homo sapiens, UniProt P46663); assay: Functional study on the bradykinin receptor 1 (B1R), FLIPR Ca2+ assay, hB1R cells; assay type: cell-based; details: CHO-K1, test substance 10 μM, agonist Lys-Des-Arg9-bradykinin 0.5 nM, % inhibition compared with the maximum achievable inhibition, read-out: B1R Antagonism, human [10 μM] % Inhibition
T2 construct: host or cells: CHO K1 cells (Chinese hamster ovary), stably transfected
T2 sequence (P46663 1-353): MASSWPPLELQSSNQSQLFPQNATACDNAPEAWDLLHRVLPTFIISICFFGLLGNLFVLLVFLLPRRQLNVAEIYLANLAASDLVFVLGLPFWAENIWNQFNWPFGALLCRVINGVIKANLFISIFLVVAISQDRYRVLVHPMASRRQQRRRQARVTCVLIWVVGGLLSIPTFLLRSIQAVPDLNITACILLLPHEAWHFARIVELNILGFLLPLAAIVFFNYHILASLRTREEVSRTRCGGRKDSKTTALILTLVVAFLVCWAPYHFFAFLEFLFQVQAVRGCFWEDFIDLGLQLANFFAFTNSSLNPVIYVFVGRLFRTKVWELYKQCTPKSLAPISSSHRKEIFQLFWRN
Procedure, shortened: as §1

| Structure (SMILES) | inhibition at 10 µM [1] [%] | inhibition at 10 µM [2] [%] |
| --- | --- | --- |
| COc1cc(C)c(S(=O)(=O)N2Cc3ccccc3C[C@H]2COCC(=O)N2CCN(C3CCN(C)CC3)CC2)c(C)c1 [Example 127, (S)-2-((2-(4-methoxy-2,6-dimethylphenylsulfonyl)-1,2,3,4-tetrahydroisoquinolin-3-yl)methoxy)-1-(4-(1-methylpiperidin-4-yl)piperazin-1-yl)ethanone] | 93.7 | 102 |
| COc1cc(C)c(S(=O)(=O)N2CCCCC2COCC(=O)N2CCN(Cc3nc4ccccc4[nH]3)CC2)c(C)c1 (stereo not shown) [Example 117, 1-(4-((1H-benzo[d]imidazol-2-yl)methyl)piperazin-1-yl)-2-((1-(4-methoxy-2,6-dimethylphenylsulfonyl)piperidin-2-yl)methoxy)ethanone] | 101 | 101 |
| COc1cc(C)c(S(=O)(=O)N2CCCCC2COCC(=O)N2CCC(N3CCN(C)CC3)CC2)c(C)c1 (stereo not shown) [Example 112, 2-((1-(4-methoxy-2,6-dimethylphenylsulfonyl)piperidin-2-yl)methoxy)-1-(4-(4-methylpiperazin-1-yl)piperidin-1-yl)ethanone hydrochloride] | 102 | 102 |
| COc1cc(C)c(S(=O)(=O)N2CCCCC2COCC(=O)NC(CN(C)C)c2ccccc2)c(C)c1 (stereo not shown) [Example 261, N-(2-(dimethylamino)-1-phenylethyl)-2-((1-(4-methoxy-2,6-dimethylphenylsulfonyl)piperidin-2-yl)methoxy)acetamide] | 98.9 | 78.9 |
| O=C(COCC1CCCCN1S(=O)(=O)c1c(Cl)cc(Cl)cc1Cl)NCc1ccc(CN2CCOCC2)cc1 (stereo not shown) [Example 30, N-(4-morpholin-4-ylmethyl-benzyl)-2-[1-(2,4,6-trichloro-phenylsulfonyl)-piperidin-2-ylmethoxy]-acetamide] | 108 | 84 |
| COc1cc(C)c(S(=O)(=O)N2CCCCC2COCC(=O)N2CCC(N3CCc4cnccc4C3)CC2)c(C)c1 (stereo not shown) [Example 100, 1-(4-(3,4-dihydro-2,6-naphthyridin-2(1H)-yl)piperidin-1-yl)-2-((1-(4-methoxy-2,6-dimethylphenylsulfonyl)piperidin-2-yl)methoxy)ethanone] | 102 | 104 |
| COc1cc(C)c(S(=O)(=O)N2CCCC2COCC(=O)N(C)C(CN2CCOCC2)c2ccccc2)c(C)c1 (stereo not shown) [Example 304, 2-((1-(4-methoxy-2,6-dimethylphenylsulfonyl)pyrrolidin-2-yl)methoxy)-N-methyl-N-(2-morpholino-1-phenylethyl)acetamide] | 102 | 71.1 |
| COc1cc(C)c(S(=O)(=O)N2Cc3ccccc3C[C@H]2COCC(=O)N2CCN(CC3CCN(C)CC3)CC2)c(C)c1 [Example 185, (S)-2-((2-(4-methoxy-2,6-dimethylphenylsulfonyl)-1,2,3,4-tetrahydroisoquinolin-3-yl)methoxy)-1-(4-((1-methylpiperidin-4-yl)methyl)piperazin-1-yl)ethanone] | 97.9 | 105 |
| COc1ccc(N2CCN(C(=O)COCC3CCCCN3S(=O)(=O)c3c(Cl)cccc3Cl)CC2)cc1 (stereo not shown) [Example 319, 2-((1-(2,6-dichlorophenylsulfonyl)piperidin-2-yl)methoxy)-1-(4-(4-methoxyphenyl)piperazin-1-yl)ethanone] | 100 | 104 |
| COc1ccc(S(=O)(=O)N2CCCCC2COCC(=O)N2CCC(CCN3CCCCC3)CC2)cc1 (stereo not shown) [Example 52, 2-((1-(4-methoxyphenylsulfonyl)piperidin-2-yl)methoxy)-1-(4-(2-(piperidin-1-yl)-ethyl)piperidin-1-yl)ethanone] | 92.8 | 65 |
| COc1cc(C)c(S(=O)(=O)N2CCCC2COCC(=O)N2CCC(c3cccnc3)C2)c(C)c1 (stereo not shown) [Example 272, 2-((1-(4-methoxy-2,6-dimethylphenylsulfonyl)pyrrolidin-2-yl)methoxy)-1-(3-(pyridin-3-yl)pyrrolidin-1-yl)ethanone] | 84.6 | 97.1 |
| COc1cc(C)c(S(=O)(=O)N2CCCCC2COCC(=O)NC(CN2CCCC2)c2ccccc2)c(C)c1 (stereo not shown) [Example 262, 2-((1-(4-methoxy-2,6-dimethylphenylsulfonyl)piperidin-2-yl)methoxy)-N-(1-phenyl-2-(pyrrolidin-1-yl)ethyl)acetamide] | 99.7 | 81.8 |

The next lines start with the values.

| inhibition at 10 µM [1] [%] | inhibition at 10 µM [2] [%] | Structure (SMILES) |
| --- | --- | --- |
| 102 | 62 | COc1cc(C)c(S(=O)(=O)N2CCCCC2COCC(=O)N2CCCCCC2c2ccc(N(C)C)cc2)c(C)c1 (stereo not shown) [Example 400, 1-(2-(4-(dimethylamino)phenyl)azepan-1-yl)-2-((1-(4-methoxy-2,6-dimethylphenylsulfonyl)piperidin-2-yl)methoxy)ethanone] |
| 102 | 103 | COc1cc(C)c(S(=O)(=O)N2CCCC2COCC(=O)N2CCN(Cc3ccc(C)cc3)CC2)c(C)c1 (stereo not shown) [Example 353, 2-((1-(4-methoxy-2,6-dimethylphenylsulfonyl)pyrrolidin-2-yl)methoxy)-1-(4-(4-methylbenzyl)piperazin-1-yl)ethanone] |
| 98.1 | 92.7 | COc1cc(C)c(S(=O)(=O)N2CCCC2COCC(=O)Nc2ccc(CCc3nc4ccccc4n3C)cc2)c(C)c1 (stereo not shown) [Example 470, 2-((1-(4-methoxy-2,6-dimethylphenylsulfonyl)pyrrolidin-2-yl)methoxy)-N-(4-(2-(1-methyl-1H-benzo[d]imidazol-2-yl)ethyl)phenyl)acetamide] |
| 98.1 | 97.7 | CN1CCC(N2CCN(C(=O)COCC3CCCN3S(=O)(=O)c3c(Cl)cc(C(F)(F)F)cc3Cl)CC2)CC1 (stereo not shown) [Example 570, 2-((1-(2,6-dichloro-4-(trifluoromethyl)phenylsulfonyl)pyrrolidin-2-yl)methoxy)-1-(4-(1-methylpiperidin-4-yl)piperazin-1-yl)ethanone] |
| 87.1 | 8.96 | CN(C)c1ccc(CNC(=O)COCC2CCCCN2S(=O)(=O)c2c(Cl)cc(Cl)cc2Cl)cc1 (stereo not shown) [Example 578, N-(4-(dimethylamino)benzyl)-2-((1-(2,4,6-trichlorophenylsulfonyl)piperidin-2-yl)methoxy)acetamide] |
| 98.8 | -0.97 | COc1cc(C)c(S(=O)(=O)N2CCCCC2COCC(=O)NCCc2cnccn2)c(C)c1 (stereo not shown) [Example 425, 2-((1-(4-methoxy-2,6-dimethylphenylsulfonyl)piperidin-2-yl)methoxy)-N-(2-(pyrazin-2-yl)ethyl)acetamide] |
| 107 | 48.4 | COc1cc(C)c(S(=O)(=O)N2CCCCC2COCC(=O)Nc2cc(C)[nH]n2)c(C)c1 (stereo not shown) [Example 535, 2-((1-(4-methoxy-2,6-dimethylphenylsulfonyl)piperidin-2-yl)methoxy)-N-(5-methyl-1H-pyrazol-3-yl)acetamide] |
| 98.4 | 84 | COc1cccc(N2CCN(C(=O)COCC3CCCN3S(=O)(=O)c3c(Cl)cccc3Cl)CC2)c1 (stereo not shown) [Example 324, 2-((1-(2,6-dichlorophenylsulfonyl)pyrrolidin-2-yl)methoxy)-1-(4-(3-methoxyphenyl)piperazin-1-yl)ethanone] |
